Legend:
[1] = target: T1, human IGF1R (hIGF1R) (Homo sapiens, UniProt P08069); assay: TR-FRET kinase assay of purified hIGF1R; type: biochemical; conditions: activated hIGF1R 0.5 nM, 10 μM ATP, values given as pIC50 category, read-out: IGF-1R pIC50 (converted)
T1 construct: containing amino acid residues 957-1367 of human IGF1R; made in house; host or cells: Sf9 cells (baculovirus)

[2] = target: ALK (Homo sapiens, UniProt Q9UM73); assay: ALK enzyme assay (HTRF); type: biochemical; conditions: 0.25 nM ALK, 15.0 μM ATP, values given as pIC50 category
Summary of the method: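 Final compound range 0.00017 to 10 μM (twelve 1:3 dilutions). Kinase reaction with ATP and biotinylated synthetic peptide runs 120 min at 20° C, stopped with EDTA; phosphotyrosine detected by HTRF after 60 min. Inhibition referenced to DMSO (1%) and EDTA (0.1 M) controls, curve-fitted.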

[3] = target: T2, NIH-3T3 cells overexpressing human IGF-1R (Homo sapiens, UniProt P08069); assay: IGF-1R cellular autophosphorylation (DELFIA); type: cell-based
T2 construct: expressed in transfected cells; host or cells: NIH-3T3 (mouse fibroblasts)
Method: (§1) NIH-3T3 cells overexpressing human IGF-1R or IR were plated in 96-well plates (10,000 cells/well) in culture media containing 10% fetal bovine serum and incubated at 37° C. in a 5% CO2 incubator. Twenty four hours post-plating, cells were treated with different concentrations of test compounds ranging from 30 uM to 1.5 nM. Two hours after compound addition, cells were stimulated with either human IGF-1 (30 ng/ml) or insulin (3 ug/ml) for 15 minutes. Cell lysates are analyzed for phosphorylated receptors using dissociation enhanced lanthanide fluor-immuno assay (DELFIA) with anti-IGF-1R (MAB391, R&D Systems, Minneapolis, Minn.) or anti-IRβ (sc-711, Santa Cruz Biotechnology, Santa Cruz, Calif.) capture antibody and europium-labeled anti-pTyr antibody (Eu-N1 PT66, Perkin Elmer, Waltham, Mass.) for detection. The fluorescence signal for cells treated with compounds was expressed as percent relative to 100% stimulation (IGF-1 or insulin stimulated signal).

[4] = target: T3, NIH-3T3 cells overexpressing human IR (Homo sapiens, UniProt P06213); assay: IR cellular autophosphorylation (DELFIA); type: cell-based; conditions: 2 h compound, insulin 3 ug/ml for 15 minutes, IC50 category
T3 construct: expressed in transfected cells; host or cells: NIH-3T3 (mouse fibroblasts)
Method: as §1

[5] = target: T4, human IR (hIR) (Homo sapiens, UniProt P06213); assay: TR-FRET kinase assay of purified hIR; type: biochemical; conditions: activated hIR 0.5 nM, 10 μM ATP, values given as pIC50 category
T4 construct: containing amino acid residues 979-1382 of human IR; made in house; host or cells: Sf9 cells (baculovirus), same process as hIGF1R

[6] = tested on: Colo205; assay: Inhibition of cell proliferation (CellTiter-Glo or InCell analyzer), Colo205; type: cell-based; conditions: Homo sapiens, COLO 205, 72 h / 3 days, values given as IC50 category
Method: Cell proliferation was measured by either CellTiter-Glo (measures cellular ATP level as a surrogate for total cell number) or by InCell analyzer (counts number of nuclei as a measure of cell number).
For CellTiter-Glo assay, exponentially growing cell lines of different tumor origins, cultured in appropriate media containing 10% fetal bovine serum at 37° C. in a 5% CO2 incubator, were plated at low density (less than 2000cells/well) in 96-well plates. Twenty four hours post-plating, cells were treated with different concentrations of test compounds ranging from 30 uM to 1.5 nM. Several wells were left untreated as a control. Seventy two hours post-treatment, cell numbers were determined using 50-100 ul per well of CellTiter-Glo (Promega #G7573). Plates were incubated at 37° C. for 30 minutes and the chemiluminescent signal was read on the Victor V or Envison 2100 reader.
For InCell Analyser assay, various cell lines of different tumor origins were grown to 70-80% confluency in appropriate culture media containing 10% fetal bovine serum at 37° C. in a 5% CO2 incubator. On day −1, cells were seeded at 2 densities in 384-well plates and incubated at 37° C. overnight. Stock compound plates were prepared in advance which contained dimethyl sulfoxide (DMSO) alone and a 9-point half-log decreasing dose range of the compound in DMSO. The compound plates were stored at −80° C. and each plate was only thawed once and used. On day 0, the main assay plates received compound or DMSO via a sonic delivery system (ECHO). The highest final concentration of compound of the dose range in the culture plates was 10 uM. These plates were cultured at 37° C. for 3 days. […] On day 3, the compound treated plates were stained and fixed to measure proliferation, apoptosis, and mitotic index using an InCelL1000 analyser. A nuclear stain was used to identify cells in the wells. By counting the number of nuclei, the proliferation index of compound treated groups were calculated as a percentage relative to the DMSO control, which was set to 100%. The IC50 values were calculated using model 205 in ExcelFit.
IC50 (nM) values for compounds of select examples were categorized by relative inhibition of cell proliferation.

T1 sequence (P08069 957-1367): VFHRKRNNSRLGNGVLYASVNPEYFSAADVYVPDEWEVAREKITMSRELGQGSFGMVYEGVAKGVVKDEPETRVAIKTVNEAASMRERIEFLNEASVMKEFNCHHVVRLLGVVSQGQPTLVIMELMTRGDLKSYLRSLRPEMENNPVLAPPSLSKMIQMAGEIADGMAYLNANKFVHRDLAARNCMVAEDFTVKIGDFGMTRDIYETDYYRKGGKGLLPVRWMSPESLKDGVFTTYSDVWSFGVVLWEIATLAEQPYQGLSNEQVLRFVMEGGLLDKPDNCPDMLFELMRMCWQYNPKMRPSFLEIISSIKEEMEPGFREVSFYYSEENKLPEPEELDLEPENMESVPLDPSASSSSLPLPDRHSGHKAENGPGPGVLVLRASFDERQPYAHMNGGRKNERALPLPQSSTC
T2 sequence (P08069 31-1367): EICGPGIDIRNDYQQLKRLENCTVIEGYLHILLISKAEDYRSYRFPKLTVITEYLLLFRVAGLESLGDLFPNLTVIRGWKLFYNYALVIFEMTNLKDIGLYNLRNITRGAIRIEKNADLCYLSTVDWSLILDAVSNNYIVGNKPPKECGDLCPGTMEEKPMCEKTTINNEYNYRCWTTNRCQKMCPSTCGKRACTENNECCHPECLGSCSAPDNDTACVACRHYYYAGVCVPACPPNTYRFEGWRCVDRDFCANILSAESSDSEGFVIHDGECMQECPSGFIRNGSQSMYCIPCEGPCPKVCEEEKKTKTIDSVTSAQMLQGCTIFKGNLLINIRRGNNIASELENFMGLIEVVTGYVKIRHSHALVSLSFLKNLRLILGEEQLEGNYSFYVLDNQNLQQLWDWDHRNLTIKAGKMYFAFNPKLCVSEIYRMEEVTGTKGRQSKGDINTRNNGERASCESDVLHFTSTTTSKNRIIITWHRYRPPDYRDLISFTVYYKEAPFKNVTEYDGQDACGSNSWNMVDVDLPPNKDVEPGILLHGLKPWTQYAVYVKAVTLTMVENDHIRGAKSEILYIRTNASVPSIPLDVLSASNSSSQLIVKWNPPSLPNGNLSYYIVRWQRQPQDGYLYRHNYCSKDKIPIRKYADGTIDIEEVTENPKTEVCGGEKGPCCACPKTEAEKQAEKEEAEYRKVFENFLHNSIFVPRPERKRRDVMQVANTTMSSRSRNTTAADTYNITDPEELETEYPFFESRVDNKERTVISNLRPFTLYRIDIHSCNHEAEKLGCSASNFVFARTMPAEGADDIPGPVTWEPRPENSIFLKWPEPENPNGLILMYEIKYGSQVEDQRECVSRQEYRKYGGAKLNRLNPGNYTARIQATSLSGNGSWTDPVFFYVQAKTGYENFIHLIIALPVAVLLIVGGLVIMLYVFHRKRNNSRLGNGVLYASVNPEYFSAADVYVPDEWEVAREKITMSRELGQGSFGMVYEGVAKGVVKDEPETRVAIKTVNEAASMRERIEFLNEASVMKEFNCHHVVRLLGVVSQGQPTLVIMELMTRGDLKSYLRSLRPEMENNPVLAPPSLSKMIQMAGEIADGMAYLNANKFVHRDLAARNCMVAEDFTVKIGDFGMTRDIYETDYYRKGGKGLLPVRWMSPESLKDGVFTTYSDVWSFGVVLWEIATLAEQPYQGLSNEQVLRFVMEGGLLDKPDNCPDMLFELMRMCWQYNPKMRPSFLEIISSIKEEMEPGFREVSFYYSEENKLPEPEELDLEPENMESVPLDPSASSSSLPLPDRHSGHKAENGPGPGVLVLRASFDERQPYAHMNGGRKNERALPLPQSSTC
T3 sequence (P06213 28-1382): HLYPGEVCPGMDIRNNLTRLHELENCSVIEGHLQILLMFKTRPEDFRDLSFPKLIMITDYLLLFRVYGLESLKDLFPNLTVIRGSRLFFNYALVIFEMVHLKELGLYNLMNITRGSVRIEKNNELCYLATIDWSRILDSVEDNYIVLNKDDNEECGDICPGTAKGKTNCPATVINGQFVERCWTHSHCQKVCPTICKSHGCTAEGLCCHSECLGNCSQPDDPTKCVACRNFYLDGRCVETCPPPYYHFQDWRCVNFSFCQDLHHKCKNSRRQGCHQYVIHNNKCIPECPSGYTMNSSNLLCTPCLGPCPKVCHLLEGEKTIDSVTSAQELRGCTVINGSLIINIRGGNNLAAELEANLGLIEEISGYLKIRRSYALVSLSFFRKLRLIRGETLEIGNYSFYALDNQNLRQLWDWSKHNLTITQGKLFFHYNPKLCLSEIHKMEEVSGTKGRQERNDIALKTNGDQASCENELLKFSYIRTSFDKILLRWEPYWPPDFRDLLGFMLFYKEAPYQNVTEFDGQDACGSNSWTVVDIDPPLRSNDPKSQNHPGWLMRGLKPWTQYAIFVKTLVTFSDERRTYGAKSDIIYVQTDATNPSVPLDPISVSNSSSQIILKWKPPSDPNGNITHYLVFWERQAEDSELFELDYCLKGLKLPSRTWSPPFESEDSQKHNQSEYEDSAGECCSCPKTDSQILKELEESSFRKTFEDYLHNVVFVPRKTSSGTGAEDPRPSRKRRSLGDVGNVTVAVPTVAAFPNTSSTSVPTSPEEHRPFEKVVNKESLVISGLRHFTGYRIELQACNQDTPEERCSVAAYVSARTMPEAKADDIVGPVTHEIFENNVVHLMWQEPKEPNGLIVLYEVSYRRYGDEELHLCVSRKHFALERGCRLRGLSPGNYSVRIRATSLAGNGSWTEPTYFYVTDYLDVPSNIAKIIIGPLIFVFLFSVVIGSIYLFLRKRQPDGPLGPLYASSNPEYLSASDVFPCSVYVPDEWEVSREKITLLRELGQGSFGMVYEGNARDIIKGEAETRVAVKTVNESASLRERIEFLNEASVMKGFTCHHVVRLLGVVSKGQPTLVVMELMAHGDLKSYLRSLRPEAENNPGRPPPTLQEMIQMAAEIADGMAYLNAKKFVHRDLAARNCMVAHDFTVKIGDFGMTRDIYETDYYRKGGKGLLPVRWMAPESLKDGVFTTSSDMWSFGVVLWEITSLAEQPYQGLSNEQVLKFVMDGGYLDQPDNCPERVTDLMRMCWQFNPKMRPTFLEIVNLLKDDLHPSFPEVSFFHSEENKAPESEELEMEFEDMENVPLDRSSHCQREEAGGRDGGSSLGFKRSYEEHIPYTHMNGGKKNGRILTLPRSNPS
T4 sequence (P06213 979-1382): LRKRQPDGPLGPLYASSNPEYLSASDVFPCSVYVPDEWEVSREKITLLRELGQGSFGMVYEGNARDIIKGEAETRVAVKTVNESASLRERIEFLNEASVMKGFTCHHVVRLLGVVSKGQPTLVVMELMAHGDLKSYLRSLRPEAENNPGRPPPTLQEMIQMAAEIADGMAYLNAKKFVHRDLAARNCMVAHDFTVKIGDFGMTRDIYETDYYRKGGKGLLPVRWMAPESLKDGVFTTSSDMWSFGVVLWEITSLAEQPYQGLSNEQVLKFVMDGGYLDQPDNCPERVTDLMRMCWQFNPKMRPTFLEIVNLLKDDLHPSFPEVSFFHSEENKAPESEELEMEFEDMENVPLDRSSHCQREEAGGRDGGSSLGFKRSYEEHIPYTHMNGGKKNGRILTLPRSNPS
Chain of ALK (Q9UM73 19-1620): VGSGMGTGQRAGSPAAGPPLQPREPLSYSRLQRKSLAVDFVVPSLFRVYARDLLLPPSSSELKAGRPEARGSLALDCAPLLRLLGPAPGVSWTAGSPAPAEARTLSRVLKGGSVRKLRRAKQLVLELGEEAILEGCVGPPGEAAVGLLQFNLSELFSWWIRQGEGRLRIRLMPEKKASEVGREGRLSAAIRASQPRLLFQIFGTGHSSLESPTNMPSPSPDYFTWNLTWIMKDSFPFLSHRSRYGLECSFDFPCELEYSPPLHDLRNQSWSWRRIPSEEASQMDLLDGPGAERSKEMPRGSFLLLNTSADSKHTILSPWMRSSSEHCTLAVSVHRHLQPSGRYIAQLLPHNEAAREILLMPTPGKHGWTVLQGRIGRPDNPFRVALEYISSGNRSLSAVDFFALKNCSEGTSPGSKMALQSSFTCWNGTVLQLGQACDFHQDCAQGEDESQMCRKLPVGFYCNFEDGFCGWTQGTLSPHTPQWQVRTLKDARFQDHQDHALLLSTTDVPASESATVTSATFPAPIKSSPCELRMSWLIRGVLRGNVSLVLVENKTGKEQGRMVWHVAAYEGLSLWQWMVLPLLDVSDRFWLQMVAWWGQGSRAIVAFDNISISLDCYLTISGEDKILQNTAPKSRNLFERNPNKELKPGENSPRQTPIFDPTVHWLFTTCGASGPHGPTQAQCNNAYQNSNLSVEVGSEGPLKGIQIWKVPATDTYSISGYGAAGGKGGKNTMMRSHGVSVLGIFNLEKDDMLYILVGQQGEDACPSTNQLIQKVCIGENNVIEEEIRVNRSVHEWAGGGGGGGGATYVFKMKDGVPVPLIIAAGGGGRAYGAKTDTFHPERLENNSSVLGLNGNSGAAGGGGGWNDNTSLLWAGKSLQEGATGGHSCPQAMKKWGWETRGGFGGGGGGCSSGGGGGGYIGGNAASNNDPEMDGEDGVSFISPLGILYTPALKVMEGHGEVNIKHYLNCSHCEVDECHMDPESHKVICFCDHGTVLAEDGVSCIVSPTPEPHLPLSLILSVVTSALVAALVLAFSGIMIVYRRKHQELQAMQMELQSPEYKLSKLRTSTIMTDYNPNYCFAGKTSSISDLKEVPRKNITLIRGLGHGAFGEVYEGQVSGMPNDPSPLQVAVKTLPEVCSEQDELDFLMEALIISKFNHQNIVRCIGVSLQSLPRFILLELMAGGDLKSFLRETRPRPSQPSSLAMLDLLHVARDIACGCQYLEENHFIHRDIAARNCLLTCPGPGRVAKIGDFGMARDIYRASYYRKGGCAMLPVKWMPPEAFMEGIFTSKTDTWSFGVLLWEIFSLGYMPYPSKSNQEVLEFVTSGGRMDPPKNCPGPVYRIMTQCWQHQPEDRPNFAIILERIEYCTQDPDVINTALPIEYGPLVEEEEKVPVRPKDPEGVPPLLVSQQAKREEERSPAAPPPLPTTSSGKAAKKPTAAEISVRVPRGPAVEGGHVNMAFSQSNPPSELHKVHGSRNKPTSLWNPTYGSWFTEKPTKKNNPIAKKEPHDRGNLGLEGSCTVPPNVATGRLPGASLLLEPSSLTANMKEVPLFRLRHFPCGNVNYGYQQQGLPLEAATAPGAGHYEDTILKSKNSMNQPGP

| IC50 [1] [nM] | IC50 [2] [nM] | IC50 [3] [nM] | IC50 [4] [nM] | IC50 [5] [nM] | IC50 [6] [nM] | SMILES |
| --- | --- | --- | --- | --- | --- | --- |
| 1.26 to 3.98 | 0.251 to 1 | 100 to 500 | 100 to 500 | – | – | CCCN1CCCC(c2ccc(Nc3nc(Nc4ccccc4C(=O)NC)c4cc[nH]c4n3)c(OC)c2)C1 (centres unmarked) [Example 24, N-methyl-2-[(2-{[2-(methyloxy)-4-(1-propyl-3-piperidinyl)phenyl]amino}-1H-pyrrolo[2,3-d]pyrimidin-4-yl)amino]benzamide] |
| 1.26 to 3.98 | 5.01 to 200 | – | > 500 | 0.251 to 1 | – | Cc1ccc(NC(=O)CN(C)C)cc1Nc1nc(Nc2cc3ccccc3cc2C(N)=O)c2cc[nH]c2n1 [Example 30, 3-{[2-({5-[(N,N-dimethylglycyl)amino]-2-methylphenyl}amino)-1H-pyrrolo[2,3-d]pyrimidin-4-yl]amino}-2-naphthalenecarboxamide] |
| 1.26 to 3.98 | 1.26 to 3.98 | < 100 | – | – | < 250 | COc1cc(N2CCN(C(C)C)CC2)c(OC)cc1Nc1nc(Nc2cccc(F)c2C(N)=O)c2cc[nH]c2n1 [Example 47, 2-fluoro-6-[(2-{[4-[4-(1-methylethyl)-1-piperazinyl]-2,5-bis(methyloxy)phenyl]amino}-1H-pyrrolo[2,3-d]pyrimidin-4-yl)amino]benzamide] |
| – | 0.251 to 1 | 100 to 500 | 100 to 500 | 0.251 to 1 | – | COc1cc(C2=CCCN(C)C2)ccc1Nc1nc(Nc2ccc(F)cc2C(N)=O)c2cc[nH]c2n1 [Example 55, 5-fluoro-2-[(2-{[2-(methyloxy)-4-(1-methyl-1,2,5,6-tetrahydro-3-pyridinyl)phenyl]amino}-1H-pyrrolo[2,3-d]pyrimidin-4-yl)amino]benzamide] |
| 0.251 to 1 | 1.26 to 3.98 | 100 to 500 | – | 0.251 to 1 | – | CN(C)CC(=O)Nc1ccc(OC(F)(F)F)c(Nc2nc(Nc3ccc(F)cc3C(N)=O)c3cc[nH]c3n2)c1 [Example 63, 2-{[2-({5-[(N,N-dimethylglycyl)amino]-2-[(trifluoromethyl)oxy]phenyl}amino)-1H-pyrrolo[2,3-d]pyrimidin-4-yl]amino}-5-fluorobenzamide] |
| 1.26 to 3.98 | 1.26 to 3.98 | < 100 | – | – | 250 to 1000 | COc1ccc(OCCCN(C)C)cc1Nc1nc(Nc2ccc(F)cc2C(N)=O)c2cc[nH]c2n1 [Example 64, 2-[(2-{[5-{[3-(dimethylamino)propyl]oxy}-2-(methyloxy)phenyl]amino}-1H-pyrrolo[2,3-d]pyrimidin-4-yl)amino]-5-fluorobenzamide] |
| 1.26 to 3.98 | 1.26 to 3.98 | 100 to 500 | – | – | 250 to 1000 | CCCN1CCC=C(c2ccc(Nc3nc(Nc4cc(F)ccc4C(=O)NCC(N)=O)c4cc[nH]c4n3)c(OC)c2)C1 [Example 67, N-(2-amino-2-oxoethyl)-4-fluoro-2-[(2-{[2-(methyloxy)-4-(1-propyl-1,2,5,6-tetrahydro-3-pyridinyl)phenyl]amino}-1H-pyrrolo[2,3-d]pyrimidin-4-yl)amino]benzamide] |
| 0.251 to 1 | – | 100 to 500 | < 100 | 0.251 to 1 | – | COc1cc(N2CCN(C(C)C)CC2)ccc1Nc1nc(Nc2cc(F)ccc2C(N)=O)c2cc[nH]c2n1 [Example 79, 4-fluoro-2-[(2-{[4-[4-(1-methylethyl)-1-piperazinyl]-2-(methyloxy)phenyl]amino}-1H-pyrrolo[2,3-d]pyrimidin-4-yl)amino]benzamide] |
| 1.26 to 3.98 | 5.01 to 200 | > 500 | – | 0.251 to 1 | – | Cc1ccc(NC(=O)CN(C)C)cc1Nc1nc(Nc2cc(F)ccc2C(N)=O)c2cc[nH]c2n1 [Example 85, 2-{[2-({5-[(N,N-dimethylglycyl)amino]-2-methylphenyl}amino)-1H-pyrrolo[2,3-d]pyrimidin-4-yl]amino}-4-fluorobenzamide] |
| 0.251 to 1 | 0.251 to 1 | 100 to 500 | – | 0.251 to 1 | – | CCCN1CCC=C(c2ccc(Nc3nc(Nc4cc(F)c(F)cc4C(N)=O)c4cc[nH]c4n3)c(OC)c2)C1 [Example 95, 4,5-difluoro-2-[(2-{[2-(methyloxy)-4-(1-propyl-1,2,5,6-tetrahydro-3-pyridinyl)phenyl]amino}-1H-pyrrolo[2,3-d]pyrimidin-4-yl)amino]benzamide] |
| 0.251 to 1 | 0.251 to 1 | < 100 | – | 0.251 to 1 | – | COc1cc(C2=CCCN(C(C)C)C2)ccc1Nc1nc(Nc2cc(F)c(F)cc2C(N)=O)c2cc[nH]c2n1 [Example 96, 4,5-difluoro-2-[(2-{[4-[1-(1-methylethyl)-1,2,5,6-tetrahydro-3-pyridinyl]-2-(methyloxy)phenyl]amino}-1H-pyrrolo[2,3-d]pyrimidin-4-yl)amino]benzamide] |
| 0.251 to 1 | 0.251 to 1 | < 100 | – | 0.251 to 1 | – | COc1cc(N2CCN(C(C)C)CC2)ccc1Nc1nc(Nc2cc(F)c(F)cc2C(N)=O)c2cc[nH]c2n1 [Example 102, 4,5-difluoro-2-[(2-{[4-[4-(1-methylethyl)-1-piperazinyl]-2-(methyloxy)phenyl]amino}-1H-pyrrolo[2,3-d]pyrimidin-4-yl)amino]benzamide] |
| 1.26 to 3.98 | 5.01 to 200 | > 500 | – | 0.251 to 1 | – | Cc1ccc(NC(=O)CN(C)C)cc1Nc1nc(Nc2cc(F)c(F)cc2C(N)=O)c2cc[nH]c2n1 [Example 106, 2-{[2-({5-[(N,N-dimethylglycyl)amino]-2-methylphenyl}amino)-1H-pyrrolo[2,3-d]pyrimidin-4-yl]amino}-4,5-difluorobenzamide] |
| 1.26 to 3.98 | 5.01 to 200 | > 500 | – | 1.26 to 3.98 | – | Cc1ccc(NC(=O)CN(C)C)cc1Nc1nc(Nc2cc(Cl)ccc2C(N)=O)c2cc[nH]c2n1 [Example 111] |
| 5.01 to 200 | 5.01 to 200 | > 500 | – | 5.01 to 158 | – | CNC(=O)c1c(F)cccc1Nc1nc(Nc2cc3c(cc2OC)C[C@@H](C)N3C(=O)CN(C)C)nc2[nH]ccc12 [Example 250, 2-[(2-{[(2R)-1-(N,N-dimethylglycyl)-2-methyl-5-(methyloxy)-2,3-dihydro-1H-indol-6-yl]amino}-1H-pyrrolo[2,3-d]pyrimidin-4-yl)amino]-6-fluoro-N-methylbenzamide] |
| 0.251 to 1 | – | < 100 | < 100 | 0.251 to 1 | – | CNC(=O)c1c(F)cccc1Nc1nc(Nc2cc3c(cc2OC)CCCN3C(=O)CN(C)C)nc2[nH]cc(C)c12 [Example 260, 2-[(2-{[1-(N,N-dimethylglycyl)-6-(methyloxy)-1,2,3,4-tetrahydro-7-quinolinyl]amino}-5-methyl-1H-pyrrolo[2,3-d]pyrimidin-4-yl)amino]-6-fluoro-N-methylbenzamide] |
| 0.251 to 1 | – | < 100 | < 100 | 0.251 to 1 | – | COc1cc2c(cc1Nc1nc(Nc3cccc(F)c3C(N)=O)c3c(C)c[nH]c3n1)N(C(=O)CN(C)C)CCC2 [Example 261, 2-[(2-{[1-(N,N-dimethylglycyl)-6-(methyloxy)-1,2,3,4-tetrahydro-7-quinolinyl]amino}-5-methyl-1H-pyrrolo[2,3-d]pyrimidin-4-yl)amino]-6-fluorobenzamide] |

Reference: patent US7981903B2, “2-[2-{phenylamino}-1H-pyrrolo[2,3-D]pyrimidin-4-yl)amino] benzamide derivatives as IGF-1R inhibitors for the treatment of cancer” (GlaxoSmithKline LLC, priority 2007, dated 2011)
